Test results as given in PubChem BioAssay (NCI).
“And” between values parts separate entries of the source, which are not always exact repeats. Equal values may be shown once.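 Test compounds were applied to cells in 96-well plates for 48 hours at 5 doses. Here, GI50 denotes the concentration required for 50% inhibition of growth. TGI: total growth inhibition.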

Tests used:
Assay in all cases: NCI tumour cell line growth inhibition, 48 h
SN12C renal = test system: SN12C renal
COLO 205 colon = test system: COLO 205 colon
HS 578T breast = test system: HS 578T breast
UACC-62 melanoma = test system: UACC-62 melanoma
SF-295 CNS = test system: SF-295 CNS
SK-OV-3 ovarian = test system: SK-OV-3 ovarian
HOP-92 NSCLC = test system: HOP-92 NSCLC
SNB-19 CNS = test system: SNB-19 CNS
SNB-75 CNS = test system: SNB-75 CNS
T-47D breast = test system: T-47D breast

SMILES	GI50 (SN12C renal)	TGI (SN12C renal)	GI50 (COLO 205 colon)	GI50 (HS 578T breast)	TGI (HS 578T breast)	GI50 (UACC-62 melanoma)	TGI (UACC-62 melanoma)	GI50 (SF-295 CNS)	TGI (SF-295 CNS)	GI50 (SK-OV-3 ovarian)	TGI (SK-OV-3 ovarian)	GI50 (HOP-92 NSCLC)	TGI (HOP-92 NSCLC)	GI50 (SNB-19 CNS)	TGI (SNB-19 CNS)	GI50 (SNB-75 CNS)	TGI (SNB-75 CNS)	GI50 (T-47D breast)	TGI (T-47D breast)	TGI (COLO 205 colon)
CCN(CC)CCOc1ccc2c(C)c(C(=O)OC)oc2c1C(=O)/C=C/c1ccc(OC)cc1	0.166 µM	2.66 µM	4.03 µM	24.1 µM	51.4 µM	2.24 µM	7.75 µM	6.76 µM	23.7 µM	4.12 µM	13.8 µM	0.551 µM	2.77 µM	4.86 µM	13.8 µM	2.81 µM	8.44 µM	12.9 µM	38.5 µM	–
COc1cc(/C=C2\C(=O)N(C)c3ccccc32)cc(OC)c1OC	17 µM	69.5 µM	17.7 µM	27.4 µM	> 100 µM	12 µM	32.1 µM	22.1 µM	> 100 µM	20.9 µM	> 100 µM	15.9 µM	70.6 µM	24.7 µM	> 100 µM	11.5 µM	70 µM	58 µM	> 100 µM	> 100 µM
COC(=O)c1ccc2[nH]c(O)c(C(=Nc3ccc(N(C)C(=O)CN4CCN(C)CC4)cc3)c3ccccc3)c2c1	0.267 µM	11.6 µM	0.7 µM	0.266 µM	4.57 µM	4.02 µM	13.8 µM	6.34 µM	21 µM	0.444 µM	5 µM	9.78 µM	39.7 µM	2.95 µM	8.33 µM	–	–	11.9 µM	33.4 µM	2.45 µM
COc1cc(N(CCC#N)CCC#N)ccc1/C(N=Nc1ccc(C(=O)O)cc1)=N/NC(=O)c1cc(Br)ccc1O	102 µg/mL	> 150 µg/mL	43.3 µg/mL	77.3 µg/mL	> 150 µg/mL	149 µg/mL	> 150 µg/mL	96.4 µg/mL	> 150 µg/mL	86.2 µg/mL	> 150 µg/mL	> 150 µg/mL	> 150 µg/mL	> 150 µg/mL	> 150 µg/mL	57.2 µg/mL	130 µg/mL	64.4 µg/mL	> 150 µg/mL	140 µg/mL
Fc1ccc(-c2nn3c(COc4ccc(Cl)cc4)nnc3s2)cc1Oc1ccccc1	> 46.1 µM	> 67 µM	41.8 µM	22.4 µM	61.4 µM	32.4 µM	> 63.4 µM	15.2 µM	33.5 µM	78.9 µM	> 100 µM	10.1 µM	21.7 µM	30.2 µM	> 58.5 µM	61 µM	> 100 µM	28 µM	> 66.3 µM	> 61.8 µM
O=NN(CCCl)C(=O)NC1CCCCC1	20.9 µM and 92.8 µM	47.8 µM and 123 µM and 214 µM	20.3 µM and 57.1 µM	–	104 µM	7.68 µM	24.2 µM and 72 µM and 77.3 µM	91.7 µM	118 µM	43.1 µM and 149 µM	162 µM and 232 µM	23.6 µM and 42.6 µM	48.7 µM and 99.1 µM and 74.7 µM	–	118 µM and 194 µM	23.3 µM and 42.1 µM	64.5 µM and 112 µM and 108 µM	–	166 µM	36.7 µM and 102 µM and 87.8 µM
